# Results: a melting point compilation (Tetko et al.; mined from patent text by program, amines drawn as free bases though some values may be those of a salt)
row,Compound,melting point [°C]
1,O=C1NC(=O)C(c2ccc(-c3ccccc3)o2)O1 (centres undefined),216 to 218
2,COc1cc2c(cc1OCCN(C)C)N(C(=O)c1ccc(-c3ccc(-c4noc(C)n4)cc3C)cc1)CC2,140 to 141
3,O=C(Nc1ccc(-c2cnc(-c3ccc(NC(=O)C4CCCCCC4)cc3)[nH]2)cc1)c1cccnc1,256 to 258
4,CCCCCC(C(=O)O)c1ccc(Cl)cc1Cl (centres undefined),65 to 68
5,Cc1cccc(-c2ccc(C(=O)O)cc2)c1,198 to 200
6,CC1(CN)CCN(c2c(F)cc3c(=O)c(C(=O)O)cn(C4CC4)c3c2Cl)C1 (centres undefined),189 to 191
7,COCO[C@@H]1[C@H]2OC(C)(C)O[C@H]2[C@H](O[C@H]2C[C@H]3OC(C)(C)OC[C@]34C3C(CC[C@]4(O)C2)[C@@]2(O)CC[C@H](CO)[C@@]2(C)C[C@H]3OCOC)O[C@H]1C (some centres undefined),126 to 129
8,CC(C)OC(=O)c1cc(-n2c(=O)c(F)c(C(F)(F)F)n(C)c2=O)c(F)cc1Cl,66 to 68
9,CC(=O)C=Cc1c(C)c(C)c(C)c2ccoc12,99
10,COc1ccc(C(=Cc2cc(OC)c(OC)cc2[N+](=O)[O-])C(=O)N2CCCC2C(=O)O)cc1 (centres undefined),120 to 122
11,Cn1cccc1C(=O)NCCCSc1ccncc1,74 to 75
12,OC1CSC(Oc2cc(F)cnc2Cl)C(O)C1O (centres undefined),143
13,COC(=O)c1cnc(C(=O)OC)c(SCc2cccc(C(F)(F)F)c2)c1,102 to 106
14,CC(C)(Br)C(=O)NOCc1ccccc1,88.6 to 91.1
15,CCC(C#N)(C(=O)N1CCOCC1)c1ccccc1 (centres undefined),88 to 90
16,Oc1c(Cl)cc(Cn2c(S)nc3ccccc32)cc1Cl,246
17,CCCCCCc1ccc(-c2c(C#N)nn(C(C)(C)Cc3ccc(C)cc3)c2O)cc1,140 to 142
18,CCOC(=O)C(C(=O)C(F)(F)F)=C(Cc1ccccc1)C(N)C(=O)OCC (centres undefined),63 to 65
19,COc1ccc(C(=O)Nc2ccc(Cl)c(Cl)c2)cc1NCc1cccc(F)c1,153 to 155
20,CCCCS(=O)(=O)N(Cc1ccc(-c2ccccc2-c2nnn[nH]2)cc1)[C@@H](C)C(=O)O,90
21,Cc1ccc2occ(-c3ccccc3)c2c1,99 to 108
22,CCc1cc(OCc2ccc3oc(-c4ccccc4C(=O)OC)nc3c2)c2c(n1)CCCC2,131 to 132
23,Nc1nnc(-c2cccc(F)c2F)c(N)n1,229 to 230
24,CS(=O)(=O)N1CCN([C@@H](CNS(=O)(=O)c2ccc(OCc3ccccc3)cc2)C(=O)NO)CC1,165
25,O=C(NC(=S)N1CCC(=O)C(C(c2ccccc2)c2ccccc2)C1)c1ccccc1 (centres undefined),168 to 169

row,Compound,melting point [°C]
1,COc1cc2c(cc1OC)CN(CCCCNC(=O)c1cc(I)ccc1OCCF)CC2,121 to 123
2,O=C1c2ccc([N+](=O)[O-])cc2C(=O)N1C1CCN(C2CCCCC2)CC1,265 to 270
3,O=C1CNCC2c3ccccc3CCN12 (centres undefined),119 to 120
4,CCNC(=O)N1CCc2cc(S(=O)(=O)N3CC(c4ccccc4)NC3=O)ccc21 (centres undefined),127
5,CCC(CC)N(O)C(=O)Nc1cccc(Oc2ccccc2)c1,111
6,N#Cc1ccc(CC2CCN(C(=O)C(=O)Nc3ccc4[nH]c(=O)oc4c3)CC2)cc1,194
7,O=C1CCC(N2C(=O)c3cccc(OCc4ccc(CN5CCN(S(=O)(=O)C(F)(F)F)CC5)cc4)c3C2=O)C(=O)N1 (centres undefined),229 to 231
8,O=C(CO)NCCCCCCCCCCNC(=O)CO,120 to 122
9,CNC(=S)[C@]1(c2cccnc2)CCCC[C@H]1NOCc1c(F)c(F)c(F)c(F)c1F,57 to 60
10,O=C(CSc1ccccc1)c1ccccc1,51 to 52
11,CC(=O)c1nc2c(OCc3ccccc3)cccc2n1C,102 to 104
12,CCn1c(=O)cc(C2CCCCC2)c2cccnc21,88 to 89
13,CCCCc1nc2c(N)nc3cccnc3c2n1CCNC(=O)c1cc(C(C)(C)C)c(O)c(C(C)(C)C)c1,248 to 250
14,CCOc1ccc(O)cc1C=O,108 to 109
15,CCCCCCCCCCCC(=O)N1CCOC1=O,63 to 65
16,CC(C)CC(=O)Oc1ccc2cc(C(=N)N)ccc2c1,250 to 252
17,CC(C)C(=O)NC(c1ccc(Br)cc1)C(F)(F)F (centres undefined),176 to 178
18,COc1cc(OCCN2C3C=C(c4ccc5ccccc5c4)CC2CC3)c2ncccc2c1 (centres undefined),100 to 103
19,COc1ccc(C(=O)c2cccc3c2CCC3C#N)cc1 (centres undefined),109 to 112
20,CC(C)c1cccc(C(C)C)c1NC(=O)N(Cc1ccc(N(C)C)cc1)c1ccc(C(F)(F)F)cc1,129 to 130
21,COC(=O)c1cn(Cc2ccccc2F)cn1,87 to 89
22,CN(C)Cc1cccc(-c2csc(N=C(N)N)n2)n1,160 to 162
23,NN=C(N)Nc1c(Cl)cccc1Cl,281
24,COc1ccc(-c2nc(SC(C)C)[nH]c2-c2ccncc2)cc1,206 to 210
25,O=C1c2ccccc2COc2ccc(CC(=O)N(O)C3CCCCC3)cc21,130 to 131

row,Compound,melting point [°C]
1,Cc1ccc2c(c1)C(C(=O)Nc1c(C(C)C)cccc1C(C)C)c1ccccc1CO2 (centres undefined),166 to 167
2,CC(c1ccccn1)C(O)(Cn1cncn1)c1ccc(F)cc1F (centres undefined),146 to 148
3,CCOC(=O)COn1c2c([nH]c(=O)c1=O)CCC1=C2C=C(n2c(C)ccc2C)CC1,157 to 158
4,O=C(NCC(c1ccccc1)c1ccccc1)C1Cc2ccccc2N1S(=O)(=O)c1ccc(-c2ccc(F)cc2)cc1 (centres undefined),80 to 82
5,Cc1cc(Cl)c(C)c(S(=O)(=O)Nc2onc(C)c2Br)c1,148 to 150
6,Cn1nc(-c2ncc(Cl)cc2F)c(Cl)c1OC(F)F,95 to 96
7,CCCCCCCCCCCCCCCCCCOc1cc(OCc2ccccc2)cc(C(=O)OC)c1,62 to 64
8,Cc1ccc(C=C2C(=O)N(c3cc(F)ccc3F)C(=O)N2C)cc1,136 to 140
9,CN(C)S(=O)(=O)c1cccc(NN)n1,117 to 120
10,CCc1cc(C(=O)c2ccccc2Cl)c(-n2c(C)nnc2COC(=O)c2ccc(Cl)c(Cl)c2)s1,117 to 119
11,CC1(C)CC(NC(=O)c2cc(Cl)cc(NC=O)c2O)CC(C)(C)C1,214 to 215
12,CC(=O)c1cccc2c1[C@@H](NC(=O)c1ccc(F)cc1)[C@H](O)C(C)(C)O2 (relative stereo),175
13,c1ccc(COc2ccc(-c3cc(NC(Cc4ccccc4)c4nnn[nH]4)ncn3)cc2)cc1 (centres undefined),150
14,CCOc1cccc(CSc2nc3cnccc3[nH]2)c1,158 to 161
15,CCOc1cnc(C)c(S(=O)(=O)c2ccc(OCc3ccccc3)cc2)c1,133 to 134
16,Nc1ccc(C(=O)c2ccc(N)cc2)cc1,241
17,CCOc1cc(C)ccc1S(N)(=O)=O,136 to 137
18,Cc1ccc(S(=O)(=O)OCC2Cc3cccc(-c4ccc(F)cc4)c3O2)cc1 (centres undefined),83 to 86
19,Cc1ccc(-c2ccc(C(=O)Nc3ccc4cc(CN5CCCC5)cnc4c3)cc2)cc1,206 to 208
20,Cc1ccc(N)c(C(O)(C(F)(F)F)C(F)(F)F)c1,110
21,C#CCOC(=O)c1ncn2c1CN(C)C(=O)c1c(Cl)cccc1-2,198 to 200
22,CC1Cc2ccccc2C(O)(C2CCN(C)CC2)c2ccsc21 (centres undefined),177 to 178
23,Cc1cc(CNC(=O)C(=O)NCCc2ccccn2)c(C)o1,112 to 115
24,CC(Oc1ccc(Oc2ncc(Cl)cc2N)cc1)C(=O)O (centres undefined),152 to 154
25,Cc1ccc(NS(=O)(=O)c2cc(C)c3cc(C(C)C)ccc(C)c2-3)cc1,146 to 148

row,Compound,melting point [°C]
1,CC(C)(C(=O)O)C1(Br)OC2=CC=CC2=CC1c1ccccc1 (centres undefined),183 to 196
2,O=C(O)c1c(OCc2ccccc2)c2ccccc2n1-c1ccccc1,140 to 142
3,O=C1c2cc(Cl)ccc2OCC1n1ccnc1 (centres undefined),123 to 125
4,Cn1c(-c2cccnc2)c(CCCCCC(=O)O)c2ccccc21,117 to 120
5,CCCOc1nc2ccccc2[nH]1,163 to 164
6,COCC1CN(C(=O)c2cc(OC)c(OC)c(OC)c2)CCN1C(=O)OC(C)(C)C (centres undefined),127
7,CC(C)(C)C(CC#N)(SN=O)C(C)(C)C,92 to 93
8,COC(=O)Nc1nccc(Oc2ccc3c(C(=O)Nc4ccc(CN5CCN(C)CC5)c(C(F)(F)F)c4)csc3c2)n1,205 to 206
9,COC(=O)C(C)(Cc1ccc(Cl)nc1)C(=O)OC,80 to 81
10,CCOC(=O)c1c(CN(C)c2ccccn2)nc2cc(OC)c(OC)cc2c1-c1ccc(OC)c(OC)c1,174 to 175
11,CC(C)(C(=O)c1ccc(N2CCCCC2)cc1)N1CCOCC1,159 to 162
12,CC(=O)OC1CSC(Oc2cncc(-c3c(C)n[nH]c3C)c2)C(OC(C)=O)C1OC(C)=O (centres undefined),95
13,CCOc1nn(-c2ccc(C(F)(F)F)cn2)cc1CCCOc1c(CC(=O)O)cccc1OC,122 to 123
14,NS(=O)(=O)c1cccc(NC(=O)c2cnn3c(C(F)F)cc(-c4ccc(Cl)c(Cl)c4)nc23)c1,306
15,CC(C)CN1CCC(CCC(=O)c2cc(Cl)c(N)[nH]c2=O)CC1,175
16,O=C(NNS(=O)(=O)c1cccc(F)c1)c1ccc2oc3ccccc3c2c1,223
17,CC(=O)N1CCC(Oc2cccc(C(F)(F)F)c2)(c2ccccc2)CC1,100 to 103
18,O=C1CCCN1[C@@H]1c2cc(C(F)(F)F)ccc2OC(CF)(CF)[C@H]1O (relative stereo),186 to 187
19,CCCCOc1ccc(-n2cc(C(=O)O)cn2)cc1C#N,200 to 202
20,CNC(=O)C1CCCN1S(=O)(=O)c1ccc(N2CCC3(CC2)OCCO3)cc1 (centres undefined),137 to 139
21,CS(=O)(=O)Nc1ccc(NCC2CCNCC2)c(C(=O)Nc2ccc(Cl)cn2)c1,223 to 226
22,CNC(=N[N+](=O)[O-])N(Cc1ccc(Cl)nc1)C(C)=O,124 to 125
23,NC(=O)c1cccnc1Oc1cccc(Cl)c1,225 to 228
24,COc1ccc(C(=C(CCBr)c2ccccc2)c2ccccc2)cc1,116 to 118
